Laboratory results from patent US8269014B2, “Thiophene analogues for the treatment or prevention of flavivirus infections” (Vertex Pharmaceuticals (Canada) Incorporated, priority 2006, dated 2012).

Tests used:
[1] = tested on: HCV replicon cells (Huh-7 ET cells); format: cell-based, human; conditions: Ratio of CC50/IC50 in HCV replicon cells (Huh-7 ET cells); average TI when tested more than once
[2] = Stability in human and rat microsomes; format: in vitro ADME; conditions: human and rat hepatic microsomes; relative to compound E / other thiophene analogues
Protocol: Incubations containing no NADPH and no UDPGA are used as controls. The compounds are incubated at 50 uM for 0 and 60 minutes. The reaction is stopped by the addition of an equal volume of acetonitrile. The mixture is centrifuged and the supernatant is analyzed by HPLC/UV or MS/MS. The percentage parent remaining corresponds to the area of the parent compound in the 60-minute incubation versus the area of the parent compound in a 0-minute incubation ×100.

CYP3A4 = test: Induction in cultured human hepatocytes (CYP3A4 activity and mRNA); format: in vitro ADME; conditions: relative to compound E / other thiophene analogues

Row | Structure (SMILES) | TI [1] | microsome stability profile [2] | induction profile in human hepatocytes (CYP3A4)
1 | CC1CCC(C(=O)N(c2cc(-c3ccccc3)sc2C(=O)O)C(C)C)CC1 (stereo not shown) [A, reference compound] | ++ (++: 100-1000) | – | –
2 | CC1CCC(C(=O)N(c2cc(-c3ccccc3)sc2C(=O)O)C2CCC(O)CC2)CC1 (stereo not shown) [B, reference compound] | ++ (++: 100-1000) | – | –
3 | COC1CCC(N(C(=O)C2CCC(C)CC2)c2cc(-c3ccccc3)sc2C(=O)O)CC1 (stereo not shown) [C, reference compound] | + (+: <100) | – | –
4 | CC(C)(C)C#Cc1cc(N(C(=O)[C@H]2CC[C@H](C)CC2)[C@H]2CC[C@H](O)CC2)c(C(=O)O)s1 [Compound 1, 5-(3,3-DIMETHYL-BUT-1-YNYL)-3-[(TRANS-4-HYDROXY-CYCLOHEXYL)-(TRANS-4-METHYL-CYCLOHEXANECARBONYL)-AMINO]-THIOPHENE-2-CARBOXYLIC ACID] | ++++++ (++++++: >6000) | better | better
5 | CO[C@H]1CC[C@H](N(c2cc(C#CC(C)(C)C)sc2C(=O)O)C(=O)[C@H]2CC[C@H](C)CC2)CC1 [Compound 2, 5-(3,3-DIMETHYL-BUT-1-YNYL)-3-[(TRANS-4-METHOXY-CYCLOHEXYL)-(TRANS-4-METHYL-CYCLOHEXANECARBONYL)-AMINO]-THIOPHENE-2-CARBOXYLIC ACID] | +++ (+++: 1000-2000) | better | better
6 | CC(C)(C)C#Cc1cc(N(C(=O)[C@H]2CC[C@H](C)CC2)[C@H]2CC[C@@H](n3cncn3)CC2)c(C(=O)O)s1 [Compound 3, 5-(3,3-DIMETHYL-BUT-1-YNYL)-3-[(TRANS-4-METHYL-CYCLOHEXANECARBONYL)-(CIS-4-[1,2,4]TRIAZOL-1-YL-CYCLOHEXYL)-AMINO]-THIOPHENE-2-CARBOXYLIC ACID] | ++++++ (++++++: >6000) | – | –
7 | CC(C)(C)C#Cc1cc(N(C(=O)[C@H]2CC[C@H](C)CC2)[C@H]2CC[C@H](n3cncn3)CC2)c(C(=O)O)s1 [Compound 4, 5-(3,3-DIMETHYL-BUT-1-YNYL)-3-[(TRANS-4-METHYL-CYCLOHEXANECARBONYL)-(TRANS-4-[1,2,4]TRIAZOL-1-YL-CYCLOHEXYL)-AMINO]-THIOPHENE-2-CARBOXYLIC ACID] | ++++ (++++: 2000-4000) | – | –
8 | CC(C)(C)C#Cc1cc(N(C(=O)[C@H]2CC[C@H](C)CC2)[C@H]2CC[C@@H](O)CC2)c(C(=O)O)s1 [Compound 5, 5-(3,3-DIMETHYL-BUT-1-YNYL)-3-[(CIS-4-HYDROXY-CYCLOHEXYL)-(TRANS-4-METHYL-CYCLOHEXANECARBONYL)-AMINO]-THIOPHENE-2-CARBOXYLIC ACID] | ++++++ (++++++: >6000) | – | –
9 | CC1CCC(C(=O)N(c2cc(C#CC(C)(C)C)sc2C(=O)O)C2CCC(n3ccnn3)CC2)CC1 (stereo not drawn) [Compound 7, 5-(3,3-DIMETHYL-BUT-1-YNYL)-3-[(TRANS-4-METHYL-CYCLOHEXANECARBONYL)-(4-CIS-[1,2,3]TRIAZOL-1-YL-CYCLOHEXYL)-AMINO]-THIOPHENE-2-CARBOXYLIC ACID] | +++++ (+++++: 4000-6000) | – | –
10 | CC(C)(C)C#Cc1cc(N(C(=O)[C@H]2CC[C@H](C)CC2)[C@H]2CC[C@H](n3ccnn3)CC2)c(C(=O)O)s1 [Compound 8, 5-(3,3-DIMETHYL-BUT-1-YNYL)-3-[(TRANS-4-METHYL-CYCLOHEXANECARBONYL)-(TRANS-4-[1,2,3]TRIAZOL-1-YL-CYCLOHEXYL)-AMINO]-THIOPHENE-2-CARBOXYLIC ACID] | ++++++ (++++++: >6000) | – | –
11 | CC(C)(C)C#Cc1cc(N(C(=O)[C@H]2CC[C@H](C)CC2)[C@H]2CC[C@H](F)CC2)c(C(=O)O)s1 [Compound 9, 5-(3,3-DIMETHYL-BUT-1-YNYL)-3-[(TRANS-4-FLUORO-CYCLOHEXYL)-(TRANS-4-METHYL-CYCLOHEXANECARBONYL)-AMINO]-THIOPHENE-2-CARBOXYLIC ACID] | ++++++ (++++++: >6000) | – | –
12 | CC1CCC(C(=O)N(c2cc(C#CC(C)(C)C)sc2C(=O)O)C(C)C)CC1 (stereo not shown) [E, reference compound] | +++ (+++: 1000-2000) | – | –
13 | CC1CCC(C(=O)N(c2cc(-c3ccccc3)sc2C(=O)O)C2CCC(n3ccnn3)CC2)CC1 (stereo not shown) [F, reference compound] | ++ (++: 100-1000) | – | –
14 | CC1CCC(C(=O)N(c2cc(-c3ccccc3)sc2C(=O)O)C2CCC(n3cncn3)CC2)CC1 (stereo not shown) [G, reference compound] | +++ (+++: 1000-2000) | – | –
15 | CC1CCC(C(=O)N(c2cc(-c3ccccc3)sc2C(=O)O)C2CCC(F)CC2)CC1 (stereo not shown) [H, reference compound] | + (+: <100) | – | –
